{"source": "patent US20240382596A1", "about": "“COMPOSITION OF VANCOMYCIN AQUEOUS SOLUTION” (HAINAN POLY PHARM. CO., LTD., priority 2021, published 2024)", "key": {"[1]": {"assay": "Stability of vancomycin eye drops, HPLC relevant substances", "assay_type": "physicochemical", "settings": "eye drops study, 0 day", "protocol": "(§1) The embodiments are intended to facilitate understanding of the invention and should not be deemed as a limitation to the invention. • HPLC analysis conditions of the following embodiments were: • Chromatographic column: Welch Ultimate XB-C18 (250×4.6 mm, 5 μm) • Detection wavelength: 280 nm; • Column temperature: 30° C.; • Flow rate: 2.0 mL/min; • Injection volume: 20 μL; • Mobile phase: • Solution A: 4.0 mL of triethylamine was precisely measured, and water was added to bring the total volume to 2000 mL, and the pH of the solution was further adjusted to 3.20 with phosphoric acid; • Solution B: Acetonitrile-tetrahydrofuran-solution A=55−10−935, the pH was adjusted to 3.20 with phosphoric acid; • Solution C: acetonitrile-tetrahydrofuran-solution A=290−10−700, the pH was adjusted to 3.20 by phosphoric acid; • Elution gradient: […]\nAfter being placed under accelerated conditions of 25° C./60% RH for 30 days, relevant substances were sampled and detected. The result is shown in Table 7, the percentage of impurities peak area is calculated by peak area normalization method."}, "[2]": {"assay": "Stability of vancomycin injection, HPLC relevant substances", "assay_type": "physicochemical", "settings": "injection study, 0 day", "protocol": "as §1\nAfter being placed under accelerated conditions of 25° C./60% RH for 30 days, relevant substances were sampled and detected."}, "[3]": {"assay": "PK test of vancomycin injection", "assay_type": "in vivo", "settings": "SD rats following a single intrathecal dose; range over G1-G3", "protocol": "Nine male SD rats were divided into three groups. […] Plasma samples were collected at 0.083, 0.167, 0.25, 0.5, 1, 2, 4, 6, 8, 12, and 24 h post-dosing in each group. The concentration of vancomycin in plasma samples was detected using an established LC-MS/MS method."}}}
{"substance": "Vancomycin hydrochloride", "values": [{"measurement": "CDP-1", "setting": "[1]", "value": 0.32, "unit": "%"}, {"measurement": "RS2", "setting": "[1]", "value": 0.53, "unit": "%"}, {"measurement": "Vancomycin HCl", "setting": "[1]", "value": 95.81, "unit": "%"}, {"measurement": "CDP-1", "setting": "[2]", "value": 0.32, "unit": "%"}, {"measurement": "RS2", "setting": "[2]", "value": 0.55, "unit": "%"}, {"measurement": "Vancomycin HCl", "setting": "[2]", "value": 95.19, "unit": "%"}, {"measurement": "elimination half-life (T½)", "setting": "[3]", "value": "40.7 to 50.5", "unit": "min"}]}
